One block for each molecule: values may come before it.
How the values were obtained:
human M5 receptor = human M5 receptor (Homo sapiens (Human), UniProt P08912); assay: Radioligand (tritiated N-methylscopolamine) binding assay, M5; conditions: CHO cell membranes expressing human M5; 1.5 nM tritiated N-methylscopolamine; 90 min, 37° C.; read-out: Ki against M5 receptor (Table 21, M5)
Method in brief: (§1)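 Compounds were tested at twelve concentrations ranging from 10 μM to […] against 1.5 nM radioligand on CHO cell membranes expressing each subtype. Incubation lasts 90 min at 37 °C in HEPES-buffered saline with Mg2+ and EDTA, pH 7.4, and filtration then separates bound radioligand.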

human M3 receptor = human M3 receptor (Homo sapiens (Human), UniProt P20309); assay: Radioligand (tritiated N-methylscopolamine) binding assay, M3; conditions: CHO cell membranes expressing human M3; 1.5 nM tritiated N-methylscopolamine; 90 min, 37° C.; read-out: Ki against M3 receptor (Table 21, M3)
Method in brief: as §1

human M4 receptor = human M4 receptor (Homo sapiens (Human), UniProt P08173); assay: Radioligand (tritiated N-methylscopolamine) binding assay, M4; conditions: Ki against the M4 receptor; membranes from CHO cells expressing human M4; tritiated N-methylscopolamine 1.5 nM; read-out: Ki
Method in brief: as §1

human M1 receptor = human M1 receptor (Homo sapiens (Human), UniProt P11229); assay: Radioligand (tritiated N-methylscopolamine) binding assay, M1; conditions: CHO cell membranes expressing human M1; 1.5 nM tritiated N-methylscopolamine; 90 min, 37° C.; read-out: Ki against M1 receptor (Table 21, M1)
Method in brief: as §1

human M2 receptor = human M2 receptor (Homo sapiens (Human), UniProt P08172); assay: Radioligand (tritiated N-methylscopolamine) binding assay, M2; conditions: CHO cell membranes expressing human M2; 1.5 nM tritiated N-methylscopolamine; 90 min, 37° C.; read-out: Ki against M2 receptor (Table 21, M2)
Method in brief: as §1

human M3 receptor, sequence (P20309 whole entry): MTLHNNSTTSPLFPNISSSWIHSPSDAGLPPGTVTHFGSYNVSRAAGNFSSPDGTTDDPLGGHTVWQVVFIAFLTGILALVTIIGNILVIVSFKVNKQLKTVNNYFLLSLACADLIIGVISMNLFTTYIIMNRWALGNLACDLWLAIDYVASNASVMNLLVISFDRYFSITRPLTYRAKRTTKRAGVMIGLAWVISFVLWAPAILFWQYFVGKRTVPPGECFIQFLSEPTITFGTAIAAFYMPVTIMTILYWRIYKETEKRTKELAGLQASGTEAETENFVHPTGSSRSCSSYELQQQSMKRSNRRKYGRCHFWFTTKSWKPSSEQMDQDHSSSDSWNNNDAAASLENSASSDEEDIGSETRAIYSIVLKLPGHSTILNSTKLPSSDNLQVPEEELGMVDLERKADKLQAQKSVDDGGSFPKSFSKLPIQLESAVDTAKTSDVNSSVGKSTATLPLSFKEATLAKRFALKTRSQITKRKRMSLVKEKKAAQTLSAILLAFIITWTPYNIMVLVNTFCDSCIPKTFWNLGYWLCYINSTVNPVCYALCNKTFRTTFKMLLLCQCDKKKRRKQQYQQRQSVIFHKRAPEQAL
human M4 receptor, sequence (P08173 whole entry): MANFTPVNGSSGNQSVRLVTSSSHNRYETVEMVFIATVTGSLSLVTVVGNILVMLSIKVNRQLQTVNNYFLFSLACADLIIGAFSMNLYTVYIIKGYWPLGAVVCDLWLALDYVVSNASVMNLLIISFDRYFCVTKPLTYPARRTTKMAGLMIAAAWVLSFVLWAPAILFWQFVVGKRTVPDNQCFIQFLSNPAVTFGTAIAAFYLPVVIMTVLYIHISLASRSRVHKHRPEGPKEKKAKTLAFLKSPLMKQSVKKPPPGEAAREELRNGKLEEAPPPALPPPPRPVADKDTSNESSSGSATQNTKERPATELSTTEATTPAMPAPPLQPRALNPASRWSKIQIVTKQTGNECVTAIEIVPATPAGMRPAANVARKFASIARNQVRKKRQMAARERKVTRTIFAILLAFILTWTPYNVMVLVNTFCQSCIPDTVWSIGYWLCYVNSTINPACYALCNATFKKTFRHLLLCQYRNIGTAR
human M1 receptor, sequence (P11229 whole entry): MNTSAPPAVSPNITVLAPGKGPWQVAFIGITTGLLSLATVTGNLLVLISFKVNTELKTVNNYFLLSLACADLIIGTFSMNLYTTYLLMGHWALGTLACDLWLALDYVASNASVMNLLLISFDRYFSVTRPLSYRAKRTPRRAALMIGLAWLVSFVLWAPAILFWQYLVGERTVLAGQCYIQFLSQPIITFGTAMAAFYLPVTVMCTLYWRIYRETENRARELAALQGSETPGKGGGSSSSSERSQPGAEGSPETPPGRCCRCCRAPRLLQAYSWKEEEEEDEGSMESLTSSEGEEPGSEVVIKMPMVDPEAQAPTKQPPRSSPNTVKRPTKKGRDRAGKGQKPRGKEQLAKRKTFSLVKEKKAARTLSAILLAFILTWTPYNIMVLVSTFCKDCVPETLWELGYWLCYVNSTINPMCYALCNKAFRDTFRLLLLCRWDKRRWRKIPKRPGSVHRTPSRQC
human M5 receptor, sequence (P08912 whole entry): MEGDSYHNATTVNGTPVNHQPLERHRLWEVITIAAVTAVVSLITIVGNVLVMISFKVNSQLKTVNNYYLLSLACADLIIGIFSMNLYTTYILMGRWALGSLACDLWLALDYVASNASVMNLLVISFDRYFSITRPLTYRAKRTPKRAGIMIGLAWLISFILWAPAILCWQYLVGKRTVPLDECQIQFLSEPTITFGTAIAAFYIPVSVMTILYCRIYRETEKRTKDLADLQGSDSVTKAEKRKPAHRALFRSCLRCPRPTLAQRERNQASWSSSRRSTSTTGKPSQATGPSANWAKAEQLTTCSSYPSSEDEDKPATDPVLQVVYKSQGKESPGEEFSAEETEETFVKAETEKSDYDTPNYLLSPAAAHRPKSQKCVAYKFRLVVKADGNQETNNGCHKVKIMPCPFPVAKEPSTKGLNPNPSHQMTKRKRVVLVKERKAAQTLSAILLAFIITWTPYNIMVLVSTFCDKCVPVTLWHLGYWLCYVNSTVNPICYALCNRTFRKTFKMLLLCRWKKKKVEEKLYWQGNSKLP
human M2 receptor, sequence (P08172 whole entry): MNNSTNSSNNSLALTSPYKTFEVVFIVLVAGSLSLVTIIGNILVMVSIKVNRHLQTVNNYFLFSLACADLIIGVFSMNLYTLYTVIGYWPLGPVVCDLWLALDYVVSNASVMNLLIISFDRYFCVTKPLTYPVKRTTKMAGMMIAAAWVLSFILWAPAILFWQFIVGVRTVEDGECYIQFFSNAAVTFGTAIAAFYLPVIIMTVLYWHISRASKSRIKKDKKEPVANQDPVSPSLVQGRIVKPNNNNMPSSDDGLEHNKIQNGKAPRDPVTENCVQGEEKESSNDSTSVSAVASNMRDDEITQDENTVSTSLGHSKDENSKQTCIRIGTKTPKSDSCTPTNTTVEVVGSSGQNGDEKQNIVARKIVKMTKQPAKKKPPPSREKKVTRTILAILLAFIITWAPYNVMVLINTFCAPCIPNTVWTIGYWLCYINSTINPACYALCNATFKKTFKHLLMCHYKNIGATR

- Ki (human M5 receptor): > 1000 nM
- Ki (human M3 receptor): > 1000 nM
- Ki (human M4 receptor): < 10 nM
- Ki (human M1 receptor): > 1000 nM
- Ki (human M2 receptor): 100 to 1000 nM
Structure (SMILES): Cc1c(C(=O)NCCC2CCN(Cc3ccccc3)CC2)cnc2cc(-c3cccc(C(F)(F)F)c3)nn12 [17-1, N-[2-(1-benzylpiperidin-4-yl)ethyl]-7-methyl-2-[3-(trifluoromethyl)phenyl]pyrazolo[1,5-a]pyrimidine-6-carboxamide]

- Ki (human M5 receptor): > 1000 nM
- Ki (human M3 receptor): > 1000 nM
- Ki (human M4 receptor): < 10 nM
- Ki (human M1 receptor): 100 to 1000 nM
- Ki (human M2 receptor): 100 to 1000 nM
Structure (SMILES): O=C(NCCC1CCN(Cc2ccccc2)CC1)C1CCN(c2cccc(OC(F)(F)F)c2)CC1 [10-19, N-[2-(1-benzylpiperidin-4-yl)ethyl]-1-[3-(trifluoromethoxy)phenyl]piperidine-4-carboxamide]

- Ki (human M5 receptor): > 1000 nM
- Ki (human M3 receptor): > 1000 nM
- Ki (human M4 receptor): < 10 nM
- Ki (human M1 receptor): > 1000 nM
- Ki (human M2 receptor): 100 to 1000 nM
Structure (SMILES): CC1CN(c2cccc(OC(F)(F)F)c2)CCC1C(=O)NCCC1CCN(Cc2ccccc2)CC1 (stereo not drawn) [10-18, N-[2-(1-benzylpiperidin-4-yl)ethyl]-3-methyl-1-[3-(trifluoromethoxy)phenyl]piperidine-4-carboxamide]

- Ki (human M5 receptor): > 1000 nM
- Ki (human M3 receptor): 100 to 1000 nM
- Ki (human M4 receptor): < 10 nM
- Ki (human M1 receptor): 100 to 1000 nM
- Ki (human M2 receptor): 10 to 100 nM
Structure (SMILES): Cc1cc(N2CCC(C(=O)NCCC3CCN(Cc4ccccc4)CC3)CC2)ccc1OC(F)(F)F [10-56, N-[2-(1-benzylpiperidin-4-yl)ethyl]-1-[3-methyl-4-(trifluoromethoxy)phenyl]piperidine-4-carboxamide]

- Ki (human M5 receptor): > 1000 nM
- Ki (human M3 receptor): > 1000 nM
- Ki (human M4 receptor): < 10 nM
- Ki (human M1 receptor): 100 to 1000 nM
- Ki (human M2 receptor): 10 to 100 nM
Structure (SMILES): C[C@@H]1CN(c2cc(F)nc(F)c2)CCN1C(=O)NCCC1CCN(Cc2ccccc2)CC1 [22-30]

- Ki (human M5 receptor): > 1000 nM
- Ki (human M3 receptor): > 1000 nM
- Ki (human M4 receptor): < 10 nM
- Ki (human M1 receptor): 100 to 1000 nM
- Ki (human M2 receptor): 10 to 100 nM
Structure (SMILES): N#Cc1cc(OC(F)(F)F)cc(N2CCC(C(=O)NCCC3CCN(Cc4ccccc4)CC3)CC2)c1 [10-23, N-[2-(1-benzylpiperidin-4-yl)ethyl]-1-[3-cyano-5-(trifluoromethoxy)phenyl]piperidine-4-carboxamide]

- Ki (human M5 receptor): > 1000 nM
- Ki (human M3 receptor): > 1000 nM
- Ki (human M4 receptor): < 10 nM
- Ki (human M1 receptor): 100 to 1000 nM
- Ki (human M2 receptor): 100 to 1000 nM
Structure (SMILES): Cc1c(C(=O)NCCC2(O)CCN(Cc3ccccc3)CC2)cnc2cc(-c3cccc(C(F)(F)F)c3)nn12 [17-3, N-[2-(1-benzyl-4-hydroxypiperidin-4-yl)ethyl]-7-methyl-2-[3-(trifluoromethyl)phenyl]pyrazolo[1,5-a]pyrimidine-6-carboxamide]

Further lines, the molecule ahead of its results:

Structure (SMILES): C[C@@H]1CN(c2cnc(C(F)(F)F)nc2)CCN1C(=O)NCCC1CCN(Cc2ccccc2)CC1 [4-79, (2R)-N-[2-(1-benzylpiperidin-4-yl)ethyl]-2-methyl-4-[2-(trifluoromethyl)pyrimidin-5-yl]piperazine-1-carboxamide]
- Ki (human M5 receptor): > 1000 nM
- Ki (human M3 receptor): > 1000 nM
- Ki (human M4 receptor): < 10 nM
- Ki (human M1 receptor): 100 to 1000 nM
- Ki (human M2 receptor): 10 to 100 nM

Structure (SMILES): N#Cc1cnc(N2CC3CCC(C2)N3C(=O)NCCC2CCN(Cc3ccccc3)CC2)nc1 [8-48, N-[2-(1-benzylpiperidin-4-yl)ethyl]-3-(5-cyanopyrimidin-2-yl)-3,8-diazabicyclo[3.2.1]octane-8-carboxamide]
- Ki (human M5 receptor): 100 to 1000 nM
- Ki (human M3 receptor): 100 to 1000 nM
- Ki (human M4 receptor): < 10 nM
- Ki (human M1 receptor): 10 to 100 nM
- Ki (human M2 receptor): < 10 nM

Structure (SMILES): C[C@@H]1CN(c2cnc(C#N)nc2)CCN1C(=O)NCCC1CCN(Cc2ccccc2)CC1 [4-80, (2R)-N-[2-(1-benzylpiperidin-4-yl)ethyl]-4-(2-cyanopyrimidin-5-yl)-2-methylpiperazine-1-carboxamide]
- Ki (human M5 receptor): > 1000 nM
- Ki (human M3 receptor): > 1000 nM
- Ki (human M4 receptor): < 10 nM
- Ki (human M1 receptor): 100 to 1000 nM
- Ki (human M2 receptor): 100 to 1000 nM

Structure (SMILES): Cc1ccccc1CN1CCC(CCNC(=O)N2CCN(c3ncc(C(F)(F)F)cn3)C[C@H]2C)CC1 [6-35, (2R)-2-methyl-N-(2-{1-[(2-methylphenyl)methyl]piperidin-4-yl}ethyl)-4-[5-(trifluoromethyl)pyrimidin-2-yl]piperazine-1-carboxamide]
- Ki (human M5 receptor): > 1000 nM
- Ki (human M3 receptor): 100 to 1000 nM
- Ki (human M4 receptor): < 10 nM
- Ki (human M1 receptor): 100 to 1000 nM
- Ki (human M2 receptor): 10 to 100 nM

Structure (SMILES): C[C@@H]1CN(c2cc(F)cc(C#N)c2)CCN1C(=O)NCCC1CCN(Cc2ccccc2)CC1 [3-11, (2R)-N-[2-(1-benzylpiperidin-4-yl)ethyl]-4-(3-cyano-5-fluorophenyl)-2-methylpiperazine-1-carboxamide]
- Ki (human M5 receptor): > 1000 nM
- Ki (human M3 receptor): > 1000 nM
- Ki (human M4 receptor): < 10 nM
- Ki (human M1 receptor): > 1000 nM
- Ki (human M2 receptor): 100 to 1000 nM

Structure (SMILES): C[C@H]1CN(c2ccc(OC(F)(F)F)c(C#N)c2)CCN1C(=O)NCCC1CCN(Cc2ccccc2)CC1 [4-21, (2S)-N-[2-(1-benzylpiperidin-4-yl)ethyl]-4-[3-cyano-4-(trifluoromethoxy)phenyl]-2-methylpiperazine-1-carboxamide]
- Ki (human M5 receptor): > 1000 nM
- Ki (human M3 receptor): 100 to 1000 nM
- Ki (human M4 receptor): < 10 nM
- Ki (human M1 receptor): 100 to 1000 nM
- Ki (human M2 receptor): 10 to 100 nM

Structure (SMILES): C[C@@H]1CN(c2ccc(OC(F)(F)F)c(C#N)c2)CCN1C(=O)NC[C@H](O)C1CCN(Cc2ccccc2)CC1 [7-10, (2R)-N-[(2R)-2-(1-benzylpiperidin-4-yl)-2-hydroxyethyl]-4-[3-cyano-4-(trifluoromethoxy)phenyl]-2-methylpiperazine-1-carboxamide]
- Ki (human M5 receptor): > 1000 nM
- Ki (human M3 receptor): > 1000 nM
- Ki (human M4 receptor): < 10 nM
- Ki (human M1 receptor): > 1000 nM
- Ki (human M2 receptor): 100 to 1000 nM

Structure (SMILES): C[C@@H]1CN(c2cc(F)c(F)c(F)c2)CCN1C(=O)NC[C@@H](O)C1CCN(Cc2ccccc2)CC1 [3-22, (2R)-N-[(2S)-2-(1-benzylpiperidin-4-yl)-2-hydroxyethyl]-2-methyl-4-(3,4,5-trifluorophenyl)piperazine-1-carboxamide]
- Ki (human M5 receptor): > 1000 nM
- Ki (human M3 receptor): > 1000 nM
- Ki (human M4 receptor): < 10 nM
- Ki (human M1 receptor): > 1000 nM
- Ki (human M2 receptor): 100 to 1000 nM

Structure (SMILES): C[C@@H]1CN(c2ccc(F)c(C#N)c2)CCN1C(=O)NCCC1CCN(Cc2ccccc2)CC1 [4-1, (2R)-N-[2-(1-benzylpiperidin-4-yl)ethyl]-4-(3-cyano-4-fluorophenyl)-2-methylpiperazine-1-carboxamide]
- Ki (human M5 receptor): > 1000 nM
- Ki (human M3 receptor): > 1000 nM
- Ki (human M4 receptor): < 10 nM
- Ki (human M1 receptor): 100 to 1000 nM
- Ki (human M2 receptor): 100 to 1000 nM

Structure (SMILES): C[C@@H]1CN(c2cc(F)c(F)c(F)c2)CCN1C(=O)NCCC1CCN(Cc2ccccc2)CC1 [3-12, (2R)-N-[2-(1-benzylpiperidin-4-yl)ethyl]-2-methyl-4-(3,4,5-trifluorophenyl)piperazine-1-carboxamide]
- Ki (human M5 receptor): > 1000 nM
- Ki (human M3 receptor): > 1000 nM
- Ki (human M4 receptor): < 10 nM
- Ki (human M1 receptor): 100 to 1000 nM
- Ki (human M2 receptor): 10 to 100 nM

Structure (SMILES): C[C@@H]1CN(c2ncc(C(F)(F)F)cn2)CCN1C(=O)NCCC1CCN(Cc2ccccc2)CC1 [3-9, (2R)-N-[2-(1-benzylpiperidin-4-yl)ethyl]-2-methyl-4-[5-(trifluoromethyl)pyrimidin-2-yl]piperazine-1-carboxamide]
- Ki (human M5 receptor): > 1000 nM
- Ki (human M3 receptor): 100 to 1000 nM
- Ki (human M4 receptor): < 10 nM
- Ki (human M1 receptor): 100 to 1000 nM
- Ki (human M2 receptor): 10 to 100 nM

Structure (SMILES): COc1nc(N2C[C@@H](C)N(C(=O)NCCC3CCN(Cc4ccccc4)CC3)[C@@H](C)C2)ncc1C#N [5-17, (2R,6S)-N-[2-(1-benzylpiperidin-4-yl)ethyl]-4-(5-cyano-4-methoxypyrimidin-2-yl)-2,6-dimethylpiperazine-1-carboxamide]
- Ki (human M5 receptor): > 1000 nM
- Ki (human M3 receptor): 100 to 1000 nM
- Ki (human M4 receptor): < 10 nM
- Ki (human M1 receptor): 100 to 1000 nM
- Ki (human M2 receptor): 100 to 1000 nM

Structure (SMILES): O=C(NCCC1CCN(Cc2ccccc2)CC1CO)N1CCN(c2cc(F)c(F)c(F)c2)CC1 (stereo not drawn) [3-19, N-{2-[1-benzyl-3-(hydroxymethyl)piperidin-4-yl]ethyl}-4-(3,4,5-trifluorophenyl)piperazine-1-carboxamide]
- Ki (human M5 receptor): > 1000 nM
- Ki (human M3 receptor): > 1000 nM
- Ki (human M4 receptor): < 10 nM
- Ki (human M1 receptor): > 1000 nM
- Ki (human M2 receptor): 100 to 1000 nM

Structure (SMILES): C[C@@H]1CN(c2cc(F)c(F)c(F)c2)CCN1C(=O)NCCC1CCN(Cc2ccc3[nH]ccc3c2)CC1 [6-1, (2R)-N-{2-[1-(1H-indol-5-ylmethyl)piperidin-4-yl]ethyl}-2-methyl-4-(3,4,5-trifluorophenyl)piperazine-1-carboxamide]
- Ki (human M5 receptor): 100 to 1000 nM
- Ki (human M3 receptor): 100 to 1000 nM
- Ki (human M4 receptor): < 10 nM
- Ki (human M1 receptor): 100 to 1000 nM
- Ki (human M2 receptor): < 10 nM

Structure (SMILES): C[C@@H]1CN(c2ncc(Cl)cn2)CCN1C(=O)NCCC1CCN(Cc2ccccc2)CC1 [5-22, (2R)-N-[2-(1-benzylpiperidin-4-yl)ethyl]-4-(5-chloropyrimidin-2-yl)-2-methylpiperazine-1-carboxamide]
- Ki (human M5 receptor): > 1000 nM
- Ki (human M3 receptor): > 1000 nM
- Ki (human M4 receptor): < 10 nM
- Ki (human M1 receptor): 100 to 1000 nM
- Ki (human M2 receptor): 10 to 100 nM

Structure (SMILES): C[C@@H]1CN(c2nccc(C(F)(F)F)n2)CCN1C(=O)NCCC1CCN(Cc2ccccc2)CC1 [5-8, (2R)-N-[2-(1-benzylpiperidin-4-yl)ethyl]-2-methyl-4-[4-(trifluoromethyl)pyrimidin-2-yl]piperazine-1-carboxamide]
- Ki (human M5 receptor): > 1000 nM
- Ki (human M3 receptor): 100 to 1000 nM
- Ki (human M4 receptor): < 10 nM
- Ki (human M1 receptor): > 1000 nM
- Ki (human M2 receptor): 10 to 100 nM

Structure (SMILES): C[C@@H]1CN(c2ccc(F)c(F)c2)CCN1C(=O)NCCC1CCN(Cc2ccccc2)CC1 [4-15, (2R)-N-[2-(1-benzylpiperidin-4-yl)ethyl]-4-(3,4-difluorophenyl)-2-methylpiperazine-1-carboxamide]
- Ki (human M5 receptor): > 1000 nM
- Ki (human M3 receptor): > 1000 nM
- Ki (human M4 receptor): < 10 nM
- Ki (human M1 receptor): 100 to 1000 nM
- Ki (human M2 receptor): 100 to 1000 nM
